This data set can be described thus: Hydrophilicity evaluated from HPLC retention times. Type of data set: physicochemical. Conditions: comparison to native Trichogin GA IV, C18 column Phenomenex Jupiter 5 μm, 300 Å, 250 × 4.5 mm, gradient 60%–100% B in 30 min, A H2O/CH3CN 9:1 0.05% TFA, B CH3CN/H2O 9:1 0.05% TFA.

We go through 1 substance from paper PMC9161086, “Water-Soluble Trichogin GA IV-Derived Peptaibols Protect Tomato Plants From Botrytis cinerea Infection With Limited Impact on Plant Defenses” (Frontiers in Plant Science, 2022).

For “1-octanoyl-Aib-Gly-Leu-Aib-Gly-Gly-Leu-Aib-Gly-Ile-Lol [Trichogin GA IV, 11-residue lipopeptaibol naturally produced by Trichoderma longibrachiatum]”, the Hydrophilicity result is “Native”.
